Experimental data reported in patent publication US9670157B2, “Benzylamine derivatives” (KALVISTA PHARMACEUTICALS LIMITED, priority 2013, dated 2017).

What was measured:
Human KLK1 = Human KLK1 (Homo sapiens (Human), UniProt P06870); experiment: Determination of the IC50 for KLK1; type: biochemical; settings: 37° C., fluorogenic substrate H-DVal-Leu-Arg-AFC
Method: KLK1 inhibitory activity in vitro was determined using standard published methods (see e.g. Johansen et al., Int. J. Tiss. Reac. 1986, 8, 185; Shori et al., Biochem. Pharmacol., 1992, 43, 1209; Stürzebecher et al., Biol. Chem. Hoppe-Seyler, 1992, 373, 1025). Human KLK1 (Callbiochem) was incubated at 37° C. with the fluorogenic substrate H-DVal-Leu-Arg-AFC and various concentrations of the test compound. Residual enzyme activity (initial rate of reaction) was determined by measuring the change in optical absorbance at 410 nm and the IC50 value for the test compound was determined.

Human plasma kallikrein = Human plasma kallikrein (Homo sapiens (Human), UniProt P03952); experiment: Determination of the IC50 for Plasma Kallikrein; type: biochemical; settings: 37° C., fluorogenic substrate H-DPro-Phe-Arg-AFC; read-out: IC50 (human PKal)
Human plasma kallikrein, sequence (P03952 391-638): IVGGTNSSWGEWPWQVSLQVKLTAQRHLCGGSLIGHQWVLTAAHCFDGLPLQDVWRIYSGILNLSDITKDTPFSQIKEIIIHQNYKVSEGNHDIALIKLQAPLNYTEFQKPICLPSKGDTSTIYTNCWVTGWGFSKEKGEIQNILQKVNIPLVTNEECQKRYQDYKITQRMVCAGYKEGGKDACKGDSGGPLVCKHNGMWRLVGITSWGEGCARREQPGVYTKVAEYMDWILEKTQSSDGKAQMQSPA
Human plasma kallikrein, sequence (P03952 20-390 partner): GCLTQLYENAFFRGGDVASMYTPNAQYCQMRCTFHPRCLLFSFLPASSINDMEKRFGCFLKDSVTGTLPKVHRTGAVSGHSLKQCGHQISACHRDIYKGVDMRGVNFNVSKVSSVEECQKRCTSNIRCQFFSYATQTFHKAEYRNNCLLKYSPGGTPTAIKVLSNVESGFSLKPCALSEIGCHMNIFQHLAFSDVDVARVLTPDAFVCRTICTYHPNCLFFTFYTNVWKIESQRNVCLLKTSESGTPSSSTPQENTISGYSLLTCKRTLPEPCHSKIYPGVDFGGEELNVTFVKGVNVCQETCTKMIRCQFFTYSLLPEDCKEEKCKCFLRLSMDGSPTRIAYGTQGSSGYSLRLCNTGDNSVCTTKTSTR
Method: Human plasma kallikrein (Protogen) was incubated at 37° C. with the fluorogenic substrate H-DPro-Phe-Arg-AFC and various concentrations of the test compound. Residual enzyme activity (initial rate of reaction) was determined by measuring the change in optical absorbance at 410 nm and the IC50 value for the test compound was determined.

Human KLK1, sequence (P06870 25-262): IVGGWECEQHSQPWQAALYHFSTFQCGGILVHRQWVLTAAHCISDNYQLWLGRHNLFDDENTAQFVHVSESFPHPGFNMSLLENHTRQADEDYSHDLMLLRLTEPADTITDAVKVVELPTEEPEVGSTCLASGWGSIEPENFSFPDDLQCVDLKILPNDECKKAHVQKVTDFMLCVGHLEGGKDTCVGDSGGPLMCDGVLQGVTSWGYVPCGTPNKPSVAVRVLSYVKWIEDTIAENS

| SMILES | IC50 (Human KLK1) [µM] | IC50 (Human plasma kallikrein) [µM] |
| --- | --- | --- |
| Cc1cc(CN)cc(C)c1CNC(=O)c1cc(C)n(Cc2csc(-c3ccccc3)n2)c1C [Example 3, 2,5-Dimethyl-1-(2-phenyl-thiazol-4-ylmethyl)-1H-pyrrole-3-carboxylic acid 4-aminomethyl-2,6-dimethyl-benzylamide] | > 10 | 0.006 |
| Cc1cc(C(=O)NCc2ccc(C3(N)CC3)cc2)c(C)n1Cc1csc(-c2ccccc2)n1 [Example 4, 2,5-Dimethyl-1-(2-phenyl-thiazol-4-ylmethyl)-1H-pyrrole-3-carboxylic acid 4-(1-amino-cyclopropyl)-benzylamide] | > 10 | 0.121 |
| Cc1cc(C(=O)NCc2ccc(CN)cc2)c(C)n1Cc1csc(-c2cccnc2)c1 [Example 8, 2,5-Dimethyl-1-(5-pyridin-3-yl-thiophen-3-ylmethyl)-1H-pyrrole-3-carboxylic acid 4-aminomethyl-benzylamide] | 6.36 | 0.348 |
| Cc1cc(C(=O)NCc2ccc(CN)cc2)c(C)n1Cc1csc(-c2ccccc2)c1 [Example 10, 2,5-Dimethyl-1-(5-phenyl-thiophen-3-ylmethyl)-1H-pyrrole-3-carboxylic acid 4-aminomethyl-benzylamide] | > 10 | 0.571 |
| Cc1cc(C(=O)NCc2ccc(CN)cc2)c(C)n1Cc1cc(-c2ccccc2)no1 [Example 11, 2,5-Dimethyl-1-(3-phenyl-isoxazol-5-ylmethyl)-1H-pyrrole-3-carboxylic acid 4-aminomethyl-benzylamide] | > 10 | 2.42 |
| Cc1cc(C(=O)NCc2ccc(CN)cc2)c(C)n1Cc1nc2ccccc2s1 [Example 12, 1-Benzothiazol-2-ylmethyl-2,5-dimethyl-1H-pyrrole-3-carboxylic acid 4-aminomethyl-benzylamide] | > 10 | 5.12 |
| Cc1cc(C(=O)NCc2ccc(CN)cc2)c(C)n1Cc1cc(-c2cccnc2)cs1 [Example 13, 2,5-Dimethyl-1-(4-pyridin-3-yl-thiophen-2-ylmethyl)-1H-pyrrole-3-carboxylic acid 4-aminomethyl-benzylamide] | > 10 | 2.38 |
| Cc1cc(C(=O)NCc2ccc(CN)cc2)c(C)n1Cc1cc(-c2ccncc2)cs1 [Example 14, 2,5-Dimethyl-1-(4-pyridin-4-yl-thiophen-2-ylmethyl)-1H-pyrrole-3-carboxylic acid 4-aminomethyl-benzylamide] | 6.37 | 2.29 |
| Cc1cc(C(=O)NCc2ccc(CN)cc2)c(C)n1Cc1cccc(N2CCOCC2)n1 [Example 15, 2,5-Dimethyl-1-(6-morpholin-4-yl-pyridin-2-ylmethyl)-1H-pyrrole-3-carboxylic acid 4-aminomethyl-benzylamide] | > 10 | 5.69 |
| Cc1cc(C(=O)NCc2ccc(CN)cc2)c(C)n1Cc1cccc(-c2ccccc2)n1 [Example 16, 2,5-Dimethyl-1-(6-phenyl-pyridin-2-ylmethyl)-1H-pyrrole-3-carboxylic acid 4-aminomethyl-benzylamide] | > 10 | 0.186 |
| Cc1cc(C(=O)NCc2ccc(CN)cc2)c(C)n1Cc1cccc(-c2cccnc2)n1 [Example 17, 1-[2,3′]Bipyridinyl-6-ylmethyl-2,5-dimethyl-1H-pyrrole-3-carboxylic acid 4-aminomethyl-benzylamide] | > 10 | 0.492 |
| Cc1cc(C(=O)NCc2ccc(CN)cc2)c(C)n1Cc1coc(-c2ccccc2)n1 [Example 18, 2,5-Methyl-1-(2-phenyl-oxazol-4-ylmethyl)-1H-pyrrole-3-carboxylic acid 4-aminomethyl-benzylamide] | > 10 | 0.435 |
| Cc1oc(-c2ccccc2)nc1Cn1c(C)cc(C(=O)NCc2ccc(CN)cc2)c1C [Example 19, 2,5-Dimethyl-1-(5-methyl-2-phenyl-oxazol-4-ylmethyl)-1H-pyrrole-3-carboxylic acid 4-aminomethyl-benzylamide] | > 10 | 0.768 |
| Cc1cc(C(=O)NCc2ccc(CN)cc2)c(C)n1Cc1cccs1 [Example 20, 2,5-Dimethyl-1-thiophen-2-ylmethyl-1H-pyrrole-3-carboxylic acid 4-amidomethyl-benzylamide] | 2.4 | 4.95 |
| Cc1cc(C(=O)NCc2ccc(CN)cc2)c(C)n1Cc1ccc(-c2ccccc2)s1 [Example 22, 2,5-Dimethyl-1-(5-phenyl-thiophen-2-ylmethyl)-1H-pyrrole-3-carboxylic acid 4-aminomethyl-benzylamide] | > 10 | 3.27 |
| Cc1nc(-c2ccc(Cn3c(C)cc(C(=O)NCc4ccc(CN)cc4)c3C)s2)cs1 [Example 23, 2,5-Dimethyl-1-[5-(2-methyl-thiazol-4-yl)-thiophen-2-ylmethyl]-1H-pyrrole-3-carboxylic acid 4-aminomethyl-benzylamide] | > 10 | 1.6 |
| Cc1cc(C(=O)NCc2ccc(CN)cc2)c(-c2ccccc2)n1Cc1csc(-c2ccccc2)n1 [Example 24, 5-Methyl-2-phenyl-1-(2-phenyl-thiazol-4-ylmethyl)-1H-pyrrole-3-carboxylic acid 4-aminomethyl-benzylamide] | > 10 | 0.431 |
| Cc1c(C(=O)NCc2ccc(CN)cc2)ccn1Cc1csc(-c2ccccc2)n1 [Example 25, 2-Methyl-1-(2-phenyl-thiazol-4-ylmethyl)-1H-pyrrole-3-carboxylic acid 4-aminomethyl-benzylamide] | > 10 | 1.33 |
| Cc1cc(C(=O)NCc2ccc(CN)cc2)c(C)n1Cc1csc(-c2cccs2)n1 [Example 26, 2,5-Dimethyl-1-[2-(2-thienyl)-thiazol-4-ylmethyl]-1H-pyrrole-3-carboxylic acid 4-aminomethyl-benzylamide] | > 10 | 0.437 |
| Cc1cc(C(=O)NCc2ccc(CN)cc2)c(C)n1Cc1csc(-c2cccc(Cl)c2)n1 [Example 27, 2,5-Dimethyl-1-[2-(3-chlorophenyl)-thiazol-4-ylmethyl]-1H-pyrrole-3-carboxylic acid 4-aminomethyl-benzylamide] | > 10 | 0.848 |
| Cc1cc(C(=O)NCc2ccc(CN)cc2)c(C)n1Cc1csc(-c2ccc(Cl)cc2)n1 [Example 28, 2,5-Dimethyl-1-[2-(4-chlorophenyl)-thiazol-4-ylmethyl]-1H-pyrrole-3-carboxylic acid 4-aminomethyl-benzylamide] | > 10 | 1.33 |
| Cc1cc(C(=O)NCc2ccc(CN)cc2)c(C)n1Cc1csc(-c2cccc(F)c2)n1 [Example 29, 1-[2-(3-Fluoro-phenyl)-thiazol-4-ylmethyl]-2,5-dimethyl-1H-pyrrole-3-carboxylic acid 4-aminomethyl-benzylamide] | > 10 | 0.14 |
| Cc1cccc(-c2nc(Cn3c(C)cc(C(=O)NCc4ccc(CN)cc4)c3C)cs2)c1 [Example 30, 2,5-Dimethyl-1-(2-m-tolyl-thiazol-4-ylmethyl)-1H-pyrrole-3-carboxylic acid 4-aminomethyl-benzylamide] | > 10 | 0.773 |
| Cc1cc(C(=O)NCc2ccc(CN)cc2)c(C)n1Cc1ccccc1 [Example 55, 1-Benzyl-2,5-dimethyl-1H-pyrrole-3-carboxylic acid 4-aminomethyl-benzylamide] | – | 3.27 |
